# Data from patent US20170196868A1, “METHODS AND COMPOSITIONS FOR TREATMENT OF HER-POSITIVE CANCERS” (UNIVERSITY OF SOUTH CAROLINA, priority 2014, published 2017).
# Several values for one entry are separate records, joined by “and”; a condition that tells them apart may be missing. Equal values may be shown once.
# How the values were obtained:
# Format in all cases: cell-based
# [1] = test system: BT474, a ER+HER2+ breast cancer cell line; assay: MTT assay for relative cell number, drug combination analysis (CompuSyn CI)
# Experimental: (§1) FIG. 1 presents an analysis of the nature of the interaction between CDK8/19 inhibitor Senexin B (a.k.a. SNX2-1-165) developed and owned by Senex Biotechnology, Inc.) and a HER2-specific monoclonal antibody (a biosimilar of trastuzumab from Biocad, Strelna, Russia) in BT474, a ER+HER2+ breast cancer cell line. In these experiments, 2000 cells/well were plated in each well of 96 well plates. […] Treatment was repeated after 3 days, and the MTT assay for relative cell number was performed after the total of 7 days of treatment. The Combination Index (CI) values were calculated using CompuSyn® (www.combosyn.com), a web tool based on the principles described in Chou (2006). […] Similar analysis was conducted for the interaction between Senexin B and lapatinib (LAP), a small-molecule inhibitor of both HER2 and EGFR, in the same cells; using a SNXB:LAP molar ratio of 10:1.
# [2] = test system: ER-HER2+ cell line SKBR3; assay: as above; conditions: Senexin B + lapatinib; three experiments
# Experimental: as §1
# The same analysis was then conducted using an ER-HER2+ cell line SKBR3 (cells were plated at 1,500 cells per well).
# [3] = test system: ER-HER2+ breast cancer cell line HCC-1419; assay: as above
# Experimental: (§2) In these experiments, 2000 cells/well were plated in each well of 96 well plates. […] Treatment was repeated after 3 days, and the MTT assay for relative cell number was performed after the total of 7 days of treatment. The Combination Index (CI) values were calculated using CompuSyn® (www.combosyn.com), a web tool based on the principles described in Chou (2006).
# (§3) The same analysis as above was conducted in ER-HER2+ breast cancer cell line HCC-1419 which, despite high levels of HER2, is intrinsically resistant to trastuzumab but sensitive to lapatinib; this pattern of resistance has been associated with activated phosphoinositide 3-kinase/AKT signaling (O'Brien et al., 2010). We also analyzed ER-HER2+ breast cancer cell line JIMT-1, which is intrinsically resistant to both trastuzumab and lapatinib.
# [4] = test system: ER-HER2+ breast cancer cell line JIMT-1; assay: as above
# Experimental: as §2, §3
# [5] = test system: lapatinib-selected SKBR3-LT cells; assay: Sensitivity of lapatinib-selected cells versus parental SKBR3, 7-day treatment; conditions: 7 days
# [6] = test system: HER2+ colon cancer cell line HCT-116; assay: MTT assay for relative cell number, drug combination analysis (CompuSyn CI); conditions: for response of cells to drug alone: single agent
# Experimental: as §1
# (§4) To determine if CDK8/19 inhibition affects the response of HER2+ colon cancer cells to lapatinib, we conducted the same type of analysis as above on two HER2+ colon cancer cell lines, HCT-116 and HT-29 (both plated at 1500 cells per well).
# [7] = test system: HER2+ colon cancer cell line HT-29; assay: as above; conditions: for response of cells to drug alone: single agent
# Experimental: as §1, §4
# [8] = test system: BT474 (ER+HER2+) breast cancer cell line; assay: Emergence of lapatinib resistance, continuous exposure for 16 weeks, crystal violet staining; conditions: for inhibition of cell growth after 1 week of treatment: single agent, 2.5 μM Senexin B or 250 nM lapatinib
# Source text: (§5) A major problem for chemotherapy in general and for molecularly targeted drugs in particular is the development of drug resistance. The ability to prevent the development of drug resistance could allow sustained response to targeted drugs and transform the outcome of cancer therapy. Since CDK8 is a key mediator of transcriptional reprogramming (Galbraith et al., 2010, 2013), we hypothesized that CDK8 inhibition may prevent the induction of transcription that may be associated with epigenetic acquisition of drug resistance. To test this hypothesis, we plated BT474 (ER+HER2+) and SKBR3 (ER-HER2+) breast cancer cell lines at 250,000 cells per T25 flask, and the cells were continuously exposed to 2.5 μM Senexin B, 250 nM lapatinib, alone and in combination, for a period of 16 weeks, changing drug-containing media twice a week. At selected time points, cells in flasks were fixed with methanol:acetic acid and stained with crystal violet. The results for BT474 are shown in FIG. 9 and for SKBR3 in FIG. 10. […] However, by week 4 (in the case of BT474) or week 8 (in the case of SKBR3), the outgrowth of cells treated with lapatinib alone became noticeable compared to cells treated with lapatinib+Senexin B combination.
# [9] = test system: SKBR3 (ER-HER2+) breast cancer cell line; assay: as above; conditions: for inhibition of cell growth after 1 week of treatment: single agent, 2.5 μM Senexin B or 250 nM lapatinib
# Source text: as §5
# [10] = test system: BT474 breast cancer cells; assay: Emergence of erlotinib resistance, continuous treatment for 35 days
# Experimental: We conducted a similar experiment with BT474 breast cancer cells continuously treated with erlotinib, an inhibitor of EGFR, another member of the same HER family as HER2/Neu. 600,000 cells per T75 flask were plated in the continuous presence of […] erlotinib, […] Senexin B, or a combination of both (changing drug-containing media twice a week). […] The macroscopic and microscopic views of the corresponding samples after 35 days of treatment are shown in FIG. 11 and FIG. 12, respectively.
# [11] = Senexin B + trastuzumab biosimilar (TRAST)
# [12] = combination of Senexin B and lapatinib
# [13] = combination of 250 nM lapatinib and 2.5 μM Senexin B
# [14] = 250 nM lapatinib alone, compared to lapatinib+Senexin B combination
compound,measurement,setting,value
CN1CCN(C(=O)c2ccc3cc(CCNc4ncnc5ccc(C#N)cc45)ccc3c2)CC1 [Senexin B],IC75 CI (Combination Index),"[1]; Senexin B (SNXB) + trastuzumab biosimilar (HER), fixed ratio 100 nM SNXB:1 μg/ml HER, 7 days, first experiment",0.019
same,IC50 CI (Combination Index),"[1]; Senexin B + lapatinib (LAP), SNXB:LAP molar ratio 10:1, separate experiments",0.512 and 0.728
same,IC50 CI (Combination Index),[2],0.611 and 0.674 and 0.470
same,CI (Combination Index),[3]; Senexin B + lapatinib,0.64
same,CI (Combination Index),[3]; [11],0.45
same,IC50 CI (Combination Index),[4]; Senexin B + lapatinib,0.39
same,IC50 CI (Combination Index),[4]; [11],0.04
same,sensitivity of SKBR3-LT relative to SKBR3,"[5]; Senexin B combination with lapatinib, fixed ratio",essentially unchanged
same,sensitivity of SKBR3-LT relative to SKBR3,"[5]; Senexin B combination with trastuzumab biosimilar, fixed ratio",essentially unchanged
same,sensitivity of SKBR3-LT relative to SKBR3,[5]; single agent,essentially unchanged
same,CI (Combination Index),[6]; Senexin B + lapatinib,0.647
same,response of cells to combination,[6]; [12],significant response
same,response of cells to drug alone,[6],weak response
same,CI (Combination Index),[7]; Senexin B + lapatinib,0.314
same,response of cells to combination,[7]; [12],significant response
same,response of cells to drug alone,[7],weak response
same,cell growth after 16 weeks of continuous treatment,[8]; [13],did not grow
same,inhibition of cell growth after 1 week of treatment,[8],limited effect
same,cell growth after 16 weeks of continuous treatment,[9]; [13],did not grow
same,inhibition of cell growth after 1 week of treatment,[9],limited effect
same,emergence of resistant colonies after 35 days of treatment,[10]; combination of 10 mM erlotinib and 1 mM Senexin B,prevented the emergence of resistance
C#Cc1cccc(Nc2ncnc3cc(OCCOC)c(OCCOC)cc23)c1 [erlotinib],emergence of resistant colonies after 35 days of treatment,[10]; 10 mM erlotinib alone,erlotinib-resistant colonies emerged
same,initial effect on cell growth,[10]; 10 mM erlotinib alone,initially inhibited cell growth
CS(=O)(=O)CCNCc1ccc(-c2ccc3ncnc(Nc4ccc(OCc5cccc(F)c5)c(Cl)c4)c3c2)o1 [lapatinib],response of cells to drug alone,[4]; single agent,resistant
same,sensitivity of SKBR3-LT relative to SKBR3,[5]; single agent,less sensitive
same,response of cells to drug alone,[6],weak response
same,response of cells to drug alone,[7],weak response
same,cell growth after 16 weeks of continuous treatment,[8]; 250 nM lapatinib alone,actively proliferating
same,time by which outgrowth of treated cells became noticeable,[8]; [14],≤ 4 week
same,inhibition of cell growth after 1 week of treatment,[8],extremely effective
same,cell growth after 16 weeks of continuous treatment,[9]; 250 nM lapatinib alone,actively proliferating
same,time by which outgrowth of treated cells became noticeable,[9]; [14],≤ 8 week
same,inhibition of cell growth after 1 week of treatment,[9],extremely effective
